Data set [1] addresses T1, OAT4 (Homo sapiens, UniProt Q9NSA0).
T1 construct: V5 (from pLenti6/V5-DEST); expressed in transfected cells; host or cells: MDCK-1 (lentiviral transduction, blasticidin selection)
T1 sequence (Q9NSA0 1-550): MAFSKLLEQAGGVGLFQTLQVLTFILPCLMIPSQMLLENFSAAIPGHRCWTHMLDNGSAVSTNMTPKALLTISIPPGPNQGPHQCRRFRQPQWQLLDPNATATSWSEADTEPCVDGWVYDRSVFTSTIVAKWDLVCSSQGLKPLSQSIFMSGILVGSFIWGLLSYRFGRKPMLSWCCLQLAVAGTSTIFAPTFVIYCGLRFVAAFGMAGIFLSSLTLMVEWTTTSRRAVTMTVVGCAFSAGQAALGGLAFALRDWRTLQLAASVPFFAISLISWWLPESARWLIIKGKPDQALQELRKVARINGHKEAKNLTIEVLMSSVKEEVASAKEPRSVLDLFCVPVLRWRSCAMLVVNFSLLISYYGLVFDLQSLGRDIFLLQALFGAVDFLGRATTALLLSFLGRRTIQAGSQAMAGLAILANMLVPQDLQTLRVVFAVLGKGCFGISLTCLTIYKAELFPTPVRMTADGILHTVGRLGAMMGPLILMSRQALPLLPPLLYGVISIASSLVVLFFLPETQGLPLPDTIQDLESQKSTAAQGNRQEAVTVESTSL
Put plainly: MDCK-OAT4 TH uptake assay with 125I-T4 tracer. It counts as cell-based. The settings on record: for T4 uptake inhibition BMC20 (M), [CI]: concentration that inhibits 125I-T4 uptake by 20%, brackets = 95% CI; for T4 uptake inhibition BMC20 (M), [CI] / 125I-T4 uptake compared to the vehicle control (range finding): 10 nM T4, 20 min; for 125I-T4 uptake compared to the vehicle control (range finding): single concentration 10 or 100 µM, below 80% = positive hit. As to the method:
Subsequently OAT4 in pENTR™/D-TOPO® Vector was shuffled into the pLenti6/V5-DEST vector (Thermo Fisher) using Gateway™ LR Clonase™ II Enzyme mix (Thermo Fisher) according to the manufacture’s protocol.
To generate an OAT4 stable cell line, MDCK-1 cells were plated in 12-well plates with full growth medium and transduced with fresh viral supernatants in the absence of antibiotics in medium. After 2 days, MDCK-1 cells transduced with OAT4 (MDCK-OAT4) or empty vector (MDCK-DEST) were selected in full growth medium supplemented with 2 µg/mL blasticidin and further maintained under blasticidin selection.
MDCK-OAT4 and MDCK-DEST cells were cultured in DMEM:F12 (L-glutamine, 15 mM HEPES) (Gibco) supplemented with (100 µg/mL penicillin + 100 µg/mL streptomycin), 10% fetal calf serum (Gibco) and 2 µg/mL blasticidin (Sigma). CHO-K1 OATP1C1 or WT cells were cultured in F12 nutrient mix (Gibco) supplemented with (100 µg/mL penicillin + 100 µg/mL streptomycin), 10% fetal calf serum (Gibco) and […] G418 (Sigma). All cell cultures were incubated at 37 °C with 5% CO2 saturation until 80% confluency. MDCK-OAT4 and MDCK-DEST cells were seeded in 96 wells plate at a density of 4 × 10^5 cells in 100 µL medium per well and incubated for 24 h before the start of the MDCK-OAT4 TH uptake assay. CHO-K1 OATP1C1 and WT cells were seeded in 96 wells plate at a density of 3 × 10^5 cells in 100 µL medium per well 72 h before the CHO-K1 OATP1C1 TH uptake assay. Medium from CHO-K1 OATP1C1 or WT assay plates was changed to serum-free F12 medium containing 5 mM sodium-butyrate 24 h before start of the CHO-K1 OATP1C1 TH uptake assay to increase transfected expression of SV-40 promotor plasmids.
Subsequently 10 µL of a tenfold stock of test compound in uptake buffer (solvent concentration 1% v/v) was added to each well. […] Cells were exposed at 37 °C for 20 min (MDCK-OAT4) or 30 min (CHO-K1 OATP1C1), unless stated differently. After exposure, cells were immediately washed with ice-cold PBS supplemented with 0.1% bovine serum albumin (BSA). Subsequently, cells were lysed in 50 µL of 0.1 M NaOH under continuous shaking at room temperature. After 20 min, cell lysates were manually transferred into separate 5 mL polypropylene tubes. One tube was also prepared with 10 µL of the T4 tracer solution. Radioactivity was measured in a Wizard^2 gamma counter (Perkin Elmer).
For the CHO-K1 OATP1C1 TH uptake assay total of 29 chemicals (Table 1) were selected for the EDC screening based on available literature data. […] The same chemicals were selected for the MDCK-OAT4 TH uptake assay, with the exception of BPF, VRP and TCS. […] The THTMT TH uptake assay was then performed as described earlier. […] A concentration of 100 µM ICG was used as a reference chemical for OATP1C1 and 100 µM LESI for OAT4. At least three independent experiments were performed for each chemical. Each individual experiment contained three technical replicates of each control and concentration tested.
Raw values were normalized to the total amount of radioactivity in the T4 tracer solution. These values were expressed as a percentage of total radioactivity added (or uptake percentage) and used for all further data analysis. Statistically significant differences between the T4 uptake of transfected and wild type cells, in the presence or absence of inhibitor, were determined by two-way ANOVA (α = 5%, two-sided). […] In brief, uptake values were normalized to the median response of the vehicle and positive controls for each plate. […] Statistical analysis were performed using GraphPad Prism version 8 for Windows (GraphPad Software, San Diego, California USA) and SAS 9.3 (SAS Institute, Cary NC).

Data set [2] has as its system MDCK-OAT4 cells. Put plainly: CellTiter-Glo luminescent cell viability assay in MDCK-OAT4 cells. The settings on record: for Cytotoxicity IC10: concentration that inhibits cell viability by 10%, MDCK-OAT4 cells, 20 min exposure. As to the method:
Cell viability was assessed through the quantitation of ATP present in cells using the commercially available CellTiter-Glo® luminescent cell viability assay and performed according to the manufacturer’s instruction (Promega, Leiden, the Netherlands). Briefly, cells were seeded as described earlier in opaque-walled clear-bottom 96 well plates. On the day of the experiment, each well was washed with 200 µL phosphate buffered saline (PBS) and exposed to 80 µL of uptake buffer, 10 µL of a tenfold stock of test compound solved in uptake buffer or control and 10 µL of T4 (final concentration 10 nM). 0.1% DMSO was used as a solvent control, while 10% DMSO was used as a positive control. After exposure for the indicated times similar to THTMT TH uptake assay, cells were immediately washed with ice-cold PBS + 0.1%BSA and exposed to 100 µL of the CellTiter-Glo® Reagent. Plates were then shaken on an orbital shaker for 2 min and left to incubate at room temperature for 10 min. Luminescence was measured on a BioTek Cytation 5 microplate reader. […] Each individual experiment was repeated at least twice and contained three technical replicates of each control and concentration tested.
Figure S2. […] Blue dots indicate the plate medians from three or four independent experiments, all control and chemical concentrations were tested in triplicates per plate. The black line indicates the best-fit concentrations response curve, the dotted line the corresponding 95% confidence interval.
In general terms: ATP-based viability assays read luminescence as a measure of living cells.

For data set [3], the system named is oatp1c1. More on the design: method as in Tohyama et al. (2004). The settings on record: ref Tohyama et al. (2004); cited from earlier work.
In data set [4] the test system is oatp1c1. More on the design: method as in Westholm et al. (2009). The settings on record: T4 1 nM; ref Westholm et al. (2009); read-out: IC50 of T4 transmembrane transport inhibition; cited from earlier work.

Where two headings read alike, the source gives them in different places. Bounds are passed on as bounds.

On to `Oc1c(Cl)c(Cl)c(Cl)c(Cl)c1Cl` [Pentachlorophenol], for which the “T4 uptake inhibition BMC20 (M), [CI]” value in data set [1] is 2.65E−05 [2.17E−05; 3.23E−05] M. Besides, the cytotoxic effects entry in data set [2] (at concentrations of the uptake assay, Figure S2) is “cytotoxic”. Further, in data set [2], the “Cytotoxicity IC10” value was 1.14 µM.
In the case of `CCCN(CCC)S(=O)(=O)c1ccc(C(=O)O)cc1` [Probenecid, reference compound], the Ki in data set [3] is 293 µM. Also, in data set [1], the “T4 uptake inhibition BMC20 (M), [CI]” value is 3.65E−05 [2.69E−05; 4.61E−05] M.
On to `O=C(O)C(F)(F)C(F)(F)C(F)(F)C(F)(F)C(F)(F)C(F)(F)C(F)(F)F` [Perfluorooctanoic acid], for which the “T4 uptake inhibition BMC20 (M), [CI]” value in data set [1] was 1.38E−06 [4.27E−07; 4.44E−06] M. Moreover, the “Cytotoxicity IC10” value in data set [2] is above 100 µM.
Regarding `O=S(=O)([O-])c1cc(S(=O)(=O)O)ccc1C1=c2cc3c4c(c2Oc2c1cc1c5c2CCCN5CCC1)CCC[N+]=4CCC3` [Sulforhodamine 101, reference compound], the “125I-T4 uptake compared to the vehicle control (range finding)” value in data set [1] was at least 80%.
For the compound `O=c1c(O)c(-c2ccc(O)c(O)c2)oc2cc(O)cc(O)c12` [Quercetin], the “T4 uptake inhibition BMC20 (M), [CI]” value in data set [1] was 1.23E−05 [4.77E−06; 3.16E−05] M. In addition, in data set [2], the “Cytotoxicity IC10” value is above 100 µM.
On the same counts, the results for `CO[C@H]1/C=C/O[C@@]2(C)Oc3c(C)c(O)c4c(O)c(c(/C=N/N5CCN(C)CC5)c(O)c4c3C2=O)NC(=O)/C(C)=C\C=C\[C@H](C)[C@H](O)[C@@H](C)[C@@H](O)[C@@H](C)[C@H](OC(C)=O)[C@@H]1C` [Rifampicin, reference compound] are 1.02E−05 [4.85E−06; 2.14E−05] M and above 100 µM.
As for `Oc1ccc(C(c2ccc(O)cc2)(C(F)(F)F)C(F)(F)F)cc1` [Bisphenol AF, Bisphenol-AF], the “T4 uptake inhibition BMC20 (M), [CI]” value in data set [1] was 5.39E−06 [1.65E−06; 1.76E−05] M. In data set [2], the cytotoxic effects entry was “cytotoxic”.
Turning to `Oc1ccc(Cc2ccc(O)cc2)cc1` [Bisphenol F, Bisphenol-F], in data set [1], the “125I-T4 uptake compared to the vehicle control (range finding)” value was “below 80%”.
As for `CC(C)(c1cc(Br)c(O)c(Br)c1)c1cc(Br)c(O)c(Br)c1` [Tetrabromobisphenol A, Tetrabromobisphenol-A], in data set [1], the “T4 uptake inhibition BMC20 (M), [CI]” value was 6.49E−07 [4.32E−07; 9.74E−07] M and the “125I-T4 uptake compared to the vehicle control (range finding)” value is recorded as “below 80%”. In addition, in data set [2], the “Cytotoxicity IC10” value was above 10 µM.
With `COc1cc([C@@H]2Oc3c(O)cc([C@H]4Oc5cc(O)cc(O)c5C(=O)[C@@H]4O)cc3[C@H]2CO)ccc1O` [Silychristin, reference compound], the “125I-T4 uptake compared to the vehicle control (range finding)” value in data set [1] is at least 80%.
Take `O=S(=O)(O)C(F)(F)C(F)(F)C(F)(F)C(F)(F)C(F)(F)C(F)(F)C(F)(F)C(F)(F)F` [Perfluorooctanesulfonic acid]: in data set [1], the “T4 uptake inhibition BMC20 (M), [CI]” value is 1.44E−06 [4.08E−07; 5.05E−06] M and the “125I-T4 uptake compared to the vehicle control (range finding)” value is reported as “below 80%”. The “Cytotoxicity IC10” value in data set [2] is above 100 µM.
With `CC1(C)C(/C=C/C=C/C=C/C=C2\N(CCCCS(=O)(=O)O)c3ccc4ccccc4c3C2(C)C)=[N+](CCCCS(=O)(=O)[O-])c2ccc3ccccc3c21` [Indocyanine green, reference compound], in data set [4], the IC50 is 0.1 µM. Further, the “T4 uptake inhibition BMC20 (M), [CI]” value in data set [1] was 1.68E−05 [1.20E−05; 2.33E−05] M. Besides, in data set [2], the “Cytotoxicity IC10” value was above 10 µM.
As for `O=C1OC(c2ccc(O)c(S(=O)(=O)O)c2)(c2ccc(O)c(S(=O)(=O)O)c2)c2c(Br)c(Br)c(Br)c(Br)c21` [Bromosulfophthalein, reference compound], in data set [1], the “BMC20 (20% reduction in T4 uptake)” value stood at 0.072 µM; the “T4 uptake inhibition BMC20 (M), [CI]” value is 7.25E−08 [3.85E−08; 1.36E−07] M; the “125I-T4 uptake compared to the vehicle control (range finding)” value is reported as “below 80%”. Also, in data set [2], the “Cytotoxicity IC10” value is above 100 µM.

A word on the Ki: it is a dissociation constant, usually derived from enzyme kinetics or from competition with a known ligand. One may read the IC50 as the concentration at which inhibition is half-maximal.

The values are drawn from paper PMC11324666, “Two novel in vitro assays to screen chemicals for their capacity to inhibit thyroid hormone transmembrane transporter proteins OATP1C1 and OAT4” (Archives of Toxicology, 2024).
